In patent US20160213635A1, “COMPOSITIONS USEFUL IN THE PREVENTION OR TREATMENT OF SKIN CANCER” (GIULIANI S.P.A., priority 2013, published 2016):

Tests used:
[1] = tested on: NHKs cells; experiment: ELISA CPDs determination after UVB irradiation and subsequent treatment with G01; format: cell-based, human; details: post-treatment 90 μM; UVB 25 mJ/cm^2; 6 h and 24 h
Description: The NHKs cells were plated in the specific culture medium and maintained in culture for 24±2 h to allow adhesion to the plate. Then, the plates identified as +UVB and +G01/UVB were respectively exposed, in the irradiation medium, to a UVB dose of 25 mJ/cm^2, while the control plates (Ctr) and those treated only with the compound under examination (G01) were maintained in the dark and at room temperature for a period of time equal to the irradiation time. The irradiation medium was then replaced with the culture medium containing the compound G01, in a concentration of 90 μM. Based on the preliminary results obtained on a broader time range, post-treatment times of 6 h and 24 h were selected, after which the plates were processed according to the procedure described in the work instruction specific for the DNA extraction. The CPDs determination was performed using a specific ELISA kit following the procedure described in the user manual.

[2] = tested on: NHKs cells; experiment: Immunofluorescence of phosphorylated histone γH2AX after UVA or UVB irradiation and subsequent treatment with G01; format: cell-based, human; details: post-treatment 90 μM; UVA 10 J/cm^2 or UVB 25 mJ/cm^2; 24 h; vs cells only irradiated
Description: The NHKs cells were plated in the specific culture medium and maintained in culture for 24±2 h to allow adhesion to the plate. Subsequently, the plates identified as +UVA, +UVA/G01 post, UVB, and +UVB/G01 post were respectively exposed, in irradiation medium, to doses of UVA of 10 J/cm^2 or UVB of 25 mJ/cm^2. The irradiation medium was then replaced with the culture medium containing the compound of the invention G01, in a concentration of 90 μM. Based on preliminary results obtained on a broader time range, a post-treatment time of 24 h was selected, after which the plates were processed for the immunofluorescence determination of the protein expression of the phosphorylated histone γH2AX, whose expression is associated to the amount of DNA damage (double strand breaks). The protein expression of the phosphorylated histone γH2AX after treatment with the compound of the invention G01, or only after irradiation with UVA/UVB, was compared with the expression in the control cells.

[3] = tested on: primary cultures of human keratinocytes, NHKs; experiment: Cell viability (incorporation of NR) after UV irradiation and subsequent treatment with G01; format: cell-based; details: post-treatment; UVA 10 J/cm^2, UVB 25 mJ/cm^2; particularly 48 h after irradiation; highest concentration tested 90 μM
Description: The cells were plated in the specific culture medium and maintained in culture for 24±2 h to allow adhesion to the plate. The cells in the plates identified as +UVA and +UVB were respectively exposed, in the irradiation medium, to doses of UVA of 10 J/cm^2 and UVB of 25 mJ/cm^2, while the control plate (Ctr) was maintained in the dark and at room temperature for a period of time equal to the irradiation time. The irradiation medium was then replaced with the culture medium, containing the compound G01 in concentrations selected based on the cell viability results obtained after treatment with the same compound (see above). The cell viability was measured (incorporation of NR) at a time of 24±2 h and 48±2 h after the irradiation, in the absence and the presence of UVA/UVB irradiation and/or treatment with the compound of the invention G01. The cell viability values for each condition tested were compared with the value obtained from the control and plotted on a graph to highlight any differences between the various experimental conditions.

[4] = tested on: NHKs cells; experiment: ELISA CPDs determination after pre-treatment with G01 and subsequent UVB irradiation; format: cell-based, human; details: pre-treatment 90 μM; UVB 80 mJ/cm^2; 6 h and 24 h
Description: The NHKs cells were plated in the specific culture medium and maintained in culture for 24±2 h to allow adhesion to the plate. Then, the keratinocytes were treated for 24±2 h with the compound G01, in a concentration of 90 μM. Subsequently, the plates identified as +UVB and +G01/UVB were exposed, in the irradiation medium, to a UVB dose of 80 mJ/cm^2, while the control plates (Ctr) and those treated only with the compound under examination (G01) were maintained in the dark and at room temperature for a period of time equal to the irradiation time. The irradiation medium was then replaced with the culture medium. Based on the preliminary results obtained on a broader time range, post-treatment times of 6 h and 24 h were selected, after which the plates were processed according to the procedure described in the work instruction specific for the DNA extraction. The determination of the pyrimidine cyclobutane dimers, CPDs, was performed using a specific ELISA kit following the procedure described in the user manual.

[5] = tested on: NHKs cells; experiment: Flow cytometric (annexin V) assessment of apoptosis induced by UV irradiation and subsequent treatment with G01; format: cell-based, human; details: post-treatment 90 μM; UVA 25 J/cm^2, UVB 80 mJ/cm^2; 24 h
Description: (§1) The NHKs cells were plated in the specific culture medium and maintained in culture for 24±2 h to allow adhesion to the plate. Each experimental condition was plated in duplicate. Subsequently, the plates identified as +UVA, +G01/UVA, +UVB, and +G01/UVB were respectively exposed, in the irradiation medium, to doses of UVA of 25 J/cm^2 and UVB of 80 mJ/cm^2, while the control plates (Ctr) and those treated only with the compound under examination (G01) were maintained in the dark and at room temperature for a period of time equal to the irradiation time. The irradiation medium was then replaced with the culture medium containing the compound G01 in a concentration of 90 μM. Based on the preliminary results obtained on a broader time range, a post-treatment time of 24 h was selected, after which the plates were processed according to the procedure given in the user manual of the specific kit for annexin V flow cytometric analysis. The positivity for annexin V in each condition tested (treatment with the compound of the invention under examination and/or UVA/UVBirradiation) was compared with the positivity in the control cells.

[6] = tested on: NHKs cells; experiment: Flow cytometric (annexin V) assessment of UV induced apoptosis after pre-treatment with G01; format: cell-based, human; details: pre-treatment 90 μM 24±2 h; UVA 25 J/cm^2, UVB 80 mJ/cm^2; 24 h
Description: as §1, with “duplicate. The cells were treated for 24±2 h with G01, in a concentration of 90 μM.” for “duplicate.”, “medium.” for “medium containing the compound G01 in a concentration of 90 μM.”, “analysis (Annexin V), a typical assay to detect the early stages of apoptosis.” for “analysis.”, “G01” for “the compound of the invention under examination”, “UVA/UVB irradiation)” for “UVA/UVBirradiation)”

`C/C=C/C=C/C=C/C(=O)O` [G01, 2,4,6-trans-octatrienoic acid] was tested, and the “CPDs products (pyrimidine cyclobutane dimers)” value [1] was “promote the removal of CPDs products”, the “fraction of phosphorylated histone γH2AX” value [2] was “significant reduction” and the “cell viability after UVA/UVB irradiation” value [3] was “significant protective action”. The “CPDs adducts (pyrimidine cyclobutane dimers)” value [4] was “promote the removal of CPDs adducts”, the “apoptosis (positivity for annexin V) induced by UVA and UVB” value [5] was “reduce the apoptosis” and the “apoptosis (positivity for annexin V) induced by UVA and UVB” value [6] was “reduce the apoptosis”.
